From ChEMBL document CHEMBL1201862, “PubChem BioAssay data set” (2004) come the findings set out here.

Among the test systems are Malme-3M; NCI-H522; NCI-H460; COLO 205; IGROV-1; SK-MEL-5; 786-0; SNB-75; HOP-92; SK-OV-3; TK-10; BT-549; HCT-15; Hs-578T; NCI-H23; SW-620; OVCAR-3; M14; A498.
Common to all, as to assay: NCI-60 cell line screen, 48 h

Molecules are shown by their SMILES.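 Each compound was tested at five concentrations against cells in 96-well plates for 48 hours. The concentration for 50% growth inhibition is given as GI50.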 Active and inactive are the calls of the source. Rule as the data show it: active = GI50 up to about 1.1 µM and inactive = higher.

As for `CN(C)c1nc(N)c(C#N)c(C#N)c1C#N`, the GI50 was > 10 µM (inactive) in the experiment with Malme-3M; 1.87 µM (inactive) in the experiment on NCI-H522; > 10 µM (inactive) with NCI-H460; > 8.81 µM (inactive) with COLO 205; > 6 µM (inactive) with IGROV-1; > 10 µM (inactive) in the experiment on SK-MEL-5. Further, the GI50 with 786-0 was > 7.16 µM (inactive); in the experiment with SNB-75, 9.68 µM (inactive); in the experiment with HOP-92, > 10 µM (inactive); in the experiment on SK-OV-3, > 10 µM (inactive); in the experiment with TK-10, > 10 µM (inactive); with BT-549, > 10 µM (inactive). Also, the GI50 was greater than 10 µM in the experiment with HCT-15; > 10 µM (inactive) with Hs-578T; > 7.46 µM (inactive) in the experiment with NCI-H23; 8.73 µM (inactive) with SW-620; > 10 µM (inactive) in the experiment with OVCAR-3; > 10 µM (inactive) with M14. Moreover, the GI50 with A498 was > 10 µM (inactive).

With `O=S(=O)(c1cccc(C(F)(F)F)c1)N1c2ccccc2-n2cccc2C1c1cccnc1` (stereo unspecified), the GI50 in the experiment on Malme-3M is 21.4 µM (inactive); in the experiment with NCI-H522, 15.4 µM (inactive); with NCI-H460 it was 22.9 µM (inactive); in the experiment on COLO 205, 16.5 µM (inactive); with IGROV-1 it was 40.6 µM (inactive); in the experiment on SK-MEL-5 it was 8.09 µM (inactive). In addition, the GI50 with 786-0 was > 40.6 µM (inactive); with SNB-75 it was 61.9 µM (inactive); in the experiment with HOP-92, 26.9 µM (inactive); in the experiment with SK-OV-3, > 46.9 µM (inactive); in the experiment on TK-10 it was > 53.8 µM (inactive); in the experiment on BT-549, 9.29 µM (inactive). Besides, the GI50 in the experiment with HCT-15 is 22 µM; in the experiment on Hs-578T, > 47 µM (inactive); in the experiment with NCI-H23 it was 8.49 µM (inactive); with SW-620, 16.5 µM (inactive); in the experiment on OVCAR-3, > 35.8 µM (inactive); in the experiment on M14, 16.2 µM (inactive). Moreover, the GI50 with A498 was 23.3 µM (inactive).

Turning to `O=C1c2ccccc2-c2c1c(-c1ccccc1)c1n2C2(C(=O)c3ccccc3C2=O)C2C(=O)N(c3ccccc3)C(=O)C12` (stereo unspecified), the GI50 in the experiment with Malme-3M was 23.9 µM (inactive); with NCI-H522, 12.9 µM (inactive); in the experiment with NCI-H460, 12 µM (inactive); in the experiment on COLO 205, 18.5 µM (inactive); with IGROV-1, 32.3 µM (inactive); in the experiment on SK-MEL-5 it was 18.2 µM (inactive). In addition, the GI50 in the experiment with 786-0 was 23.4 µM (inactive); in the experiment with SNB-75, 17.3 µM (inactive); in the experiment on HOP-92 it was 23.8 µM (inactive); with SK-OV-3 it was 41.9 µM (inactive); in the experiment on TK-10, 28.1 µM (inactive); with BT-549 it was 17.5 µM (inactive). Also, the GI50 with HCT-15 was 16.4 µM; in the experiment on Hs-578T, 17.8 µM (inactive); in the experiment with NCI-H23, 17.4 µM (inactive); in the experiment with SW-620, 31.5 µM (inactive); in the experiment on OVCAR-3, 24.3 µM (inactive); in the experiment on M14 it was 34.1 µM (inactive). The GI50 in the experiment on A498 is 28.1 µM (inactive).

For `Cc1c(N)nc([C@H](CC(N)=O)NC[C@H](N)C(N)=O)nc1C(=O)N[C@H](C(=O)N[C@H](C)[C@@H](O)CC(=O)N[C@H](C(=O)NC(O[C@@H]1O[C@@H](C)[C@@H](N)[C@@H](O)[C@H]1O)C(O)c1nc(-c2nc(C(=O)NCCC[S+](C)C)cs2)cs1)[C@@H](C)O)[C@H](O[C@@H]1O[C@@H](CO)[C@@H](O)[C@H](O)[C@@H]1O[C@H]1O[C@H](CO)[C@@H](O)[C@H](OC(N)=O)[C@@H]1O)c1c[nH]cn1` (stereo partly specified), the GI50 in the experiment with Malme-3M is 37.2 µM (inactive); in the experiment on NCI-H522, 15.1 µM (inactive); in the experiment with NCI-H460 it was 2.79 µM (inactive); in the experiment on COLO 205 it was > 100 µM (inactive); with IGROV-1, 33.3 µM (inactive); in the experiment with SK-MEL-5 it was 28.8 µM (inactive). Also, the GI50 was 13.9 µM (inactive) in the experiment with 786-0; 18.3 µM (inactive) in the experiment on SNB-75; 24.6 µM (inactive) in the experiment with HOP-92; > 100 µM (inactive) with SK-OV-3; > 100 µM (inactive) in the experiment with TK-10; > 100 µM (inactive) with BT-549. The GI50 with HCT-15 is 34.4 µM; with Hs-578T, 6.17 µM (inactive); in the experiment on NCI-H23, > 100 µM (inactive); in the experiment on SW-620, > 100 µM (inactive); with OVCAR-3, 95.3 µM (inactive); in the experiment with M14, > 100 µM (inactive). Also, in the experiment on A498, the GI50 was 67.1 µM (inactive).
